Data: ChEMBL document CHEMBL1156523, “Cryptosporidium p30, a galactose/N-acetylgalactosamine-specific lectin, mediates infection in vitro” (J Biol Chem, 2007)
In brackets after ≈: the same amount, converted by molar mass.

Tests used:
Cryptosporidium hominis [1] = assay: Anticryptosporidial activity against Cryptosporidium hominis TU502 assessed as inhibition of rabbit erythrocytes hemagglutinination; type: functional
Cryptosporidium parvum [2] = assay: Anticryptosporidial activity against Cryptosporidium parvum GCH1 assessed as inhibition of rabbit erythrocytes hemagglutinination relative to galactose; type: functional
[3] = Inhibition of Cryptosporidium parvum recombinant Galactose/N-acetylgalactosamine-specific lectin binding to Caco2A cells; type: cell-based; details: caco-2
Cryptosporidium hominis [4] = assay: Anticryptosporidial activity against Cryptosporidium hominis TU502 assessed as inhibition of rabbit erythrocytes hemagglutinination relative to galactose; type: functional
Cryptosporidium parvum [5] = assay: Anticryptosporidial activity against Cryptosporidium parvum GCH1 assessed as inhibition of rabbit erythrocytes hemagglutinination; type: functional

Compound | MIC (Cryptosporidium hominis [1]) | Activity (Cryptosporidium parvum [2]) | IC50 [3] | Activity (Cryptosporidium hominis [4]) | MIC (Cryptosporidium parvum [5])
O=C[C@H](O)[C@@H](O)[C@@H](O)[C@H](O)CO [GALACTOSE] | 6.2 mM (≈ 1120 µg/mL) | 1 | 12.5 mM | 1 | 6.2 mM (≈ 1120 µg/mL)
OC[C@H]1O[C@H](O[C@H]2[C@H](O)[C@@H](O)[C@H](O)O[C@@H]2CO)[C@H](O)[C@@H](O)[C@H]1O |  |  | 5 mM |  | 
CC(=O)N[C@@H]1[C@@H](O)[C@H](O)[C@@H](CO)O[C@H]1O [N-ACETYLGLUCOSAMINE] | > 100 mM | 0.124 | > 500 mM | 0.062 | 50 mM (≈ 11100 µg/mL)
C[C@H](O)[C@@H](O)[C@@H](O)[C@H](O)C=O [L-FUCOSE] | > 100 mM | <0.062 | > 500 mM | <0.062 | > 100 mM
CC(=O)N[C@@H]1[C@@H](O[C@@H]2O[C@H](CO)[C@H](O)[C@H](O)[C@H]2O)[C@H](O)[C@@H](CO)O[C@H]1O |  |  | 1.5 mM |  | 
CC(=O)N[C@H]1C(O)O[C@H](CO)[C@H](O)[C@@H]1O (stereo partly drawn) | 3.1 mM (≈ 686 µg/mL) | 2 | 6.5 mM | 2 | 3.1 mM (≈ 686 µg/mL)
CO[C@H]1O[C@H](CO)[C@@H](O)[C@H](O)[C@H]1O |  |  | > 500 mM |  | 
O=[N+]([O-])c1ccc(O[C@@H]2O[C@H](CO)[C@H](O)[C@H](O)[C@H]2O)cc1 |  |  | 50 mM |  | 
CC(=O)N[C@H]1C(O)O[C@H](CO)[C@H](O)[C@@H]1O[C@@H]1O[C@H](CO)[C@H](O)[C@H](O)[C@H]1O (stereo partly drawn) |  |  | 3.5 mM |  | 
OC[C@H]1O[C@@H](O)[C@H](O)[C@@H](O)[C@@H]1O [DEXTROSE] | > 100 mM | 0.062 | > 500 mM | 0.062 | 100 mM (≈ 18000 µg/mL)
OC[C@H]1O[C@H](O[C@@H]2[C@H](O)[C@@H](O)C(O)O[C@@H]2CO)[C@H](O)[C@@H](O)[C@H]1O (stereo partly drawn) |  |  | 2.5 mM |  | 
CC(=O)N[C@@H]1[C@@H](O)[C@H](O)[C@@H](CO[C@@H]2O[C@H](CO)[C@H](O)[C@H](O)[C@H]2O)O[C@H]1O |  |  | 0.5 mM |  | 
OC[C@H]1OC(O)[C@@H](O)[C@@H](O)[C@@H]1O (stereo partly drawn) [D-MANNOSE] | > 100 mM | 0.124 | > 500 mM | 0.062 | 50 mM (≈ 9010 µg/mL)
O=[N+]([O-])c1ccc(O[C@H]2O[C@H](CO)[C@H](O)[C@H](O)[C@H]2O)cc1 |  |  | 25 mM |  | 
